Numbered stars: 1 amine (or outer) side, 2 acyl side, 3 side chain; on linkers, the order of the positions; unused ones are H or OH. Square brackets hold non-standard residues; d marks the D form. Peptide text beside a SMILES is read from it. * marks the point of attachment. 2‑MPUPA = 4-(N′-(2-methylphenyl)urea)phenylacetyl, Cc1ccccc1NC(=O)Nc1ccc(CC(=O)*)cc1; X2 = O=C(Cc1ccc(N[*:1])cc1)[*:2]; NH(2-Me-phenyl) = Cc1ccccc1N*; NH(2-F-phenyl) = Fc1ccccc1N*; Piperidide = C1CCN(*)CC1; PhAc = O=C(Cc1ccccc1)*; NHcHex = C1CCC(N*)CC1; CO = O=C([*:1])[*:2]; NHBn = c1ccc(CN*)cc1; NHPh = c1ccc(N*)cc1; Ahx = NCCCCCC(=O)O; Bn = c1ccc(C*)cc1; X4 = c1ccc(N*)nc1; NHiBu = CC(C)CN*; NHiPr = CC(C)N*
B1: Compound 152 (peptide)
peptide: Ac-FLDV-OH
B2: Compound 2 (peptide)
peptide: {3‑methoxy‑4‑(N'-phenylurea)phenylacetyl}-MDVP-OH
B3: Compound 168 (peptide)
peptide: LDVM
HELM: PEPTIDE1{[O=C(c1ccc2ccccc2n1)[*:2]].L.D.V.M.[CO[*:1]]}$$$$V2.0
SMILES: COC(=O)[C@H](CCSC)NC(=O)[C@@H](NC(=O)[C@H](CC(=O)O)NC(=O)[C@H](CC(C)C)NC(=O)c1ccc2ccccc2n1)C(C)C
B4: Compound 167 (peptide)
peptide: LDVM
HELM: PEPTIDE1{[CC(C)(C)OC(=O)[*:2]].L.D.V.M.[CO[*:1]]}$$$$V2.0
SMILES: COC(=O)[C@H](CCSC)NC(=O)[C@@H](NC(=O)[C@H](CC(=O)O)NC(=O)[C@H](CC(C)C)NC(=O)OC(C)(C)C)C(C)C
B5: Compound 315 (peptide)
peptide: MDVP
HELM: PEPTIDE1{[Cc1ccccc1NC(=O)Nc1ccc(CC(=O)[*:2])cc1].M.D.V.P}$$$$V2.0
SMILES: CSCC[C@H](NC(=O)Cc1ccc(NC(=O)Nc2ccccc2C)cc1)C(=O)N[C@@H](CC(=O)O)C(=O)N[C@H](C(=O)N1CCC[C@H]1C(=O)O)C(C)C
B6: Compound 186 (peptide)
peptide: LDVM
HELM: PEPTIDE1{[O=C(c1ccc2ccccc2n1)[*:2]].L.D.V.M}$$$$V2.0
SMILES: CSCC[C@H](NC(=O)[C@@H](NC(=O)[C@H](CC(=O)O)NC(=O)[C@H](CC(C)C)NC(=O)c1ccc2ccccc2n1)C(C)C)C(=O)O
B7: Compound 202 (peptide)
peptide: {2‑MPUPA}-K(Ahx)DVP-OH
B8: Compound 146 (peptide)
peptide: {4‑(N'-2-hydroxyphenylurea)phenylacetyl}-MDVP-OH

Molecular target: T1, VLA4 (Homo sapiens, UniProt P05556+P13612)
T1 construct: endogenous in cells; host or cells: Ramos cells
Assay: Inhibition of VLA4-dependent adhesion of Ramos cells to BSA-CS1
Type: cell-based
Conditions: Ramos cells, BSA-CS1 coated wells, 2 mM MnCl2, 30 minutes at room temperature; read-out: IC50
Procedure, shortened: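 BCECF-AM-labelled Ramos cells in Tris buffer pH 7.4 with 2 mM MnCl2 were added with compound to wells coated with BSA-conjugated Cys-Tyr-CS1 peptide (1 μg/mL). Cells and compound were incubated for 30 min at room temperature, in triplicate. Inhibition was quantified from bound fluorescence against no-compound controls, with uncoated wells used for nonspecific binding.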

T1 sequence (P13612 34-1032): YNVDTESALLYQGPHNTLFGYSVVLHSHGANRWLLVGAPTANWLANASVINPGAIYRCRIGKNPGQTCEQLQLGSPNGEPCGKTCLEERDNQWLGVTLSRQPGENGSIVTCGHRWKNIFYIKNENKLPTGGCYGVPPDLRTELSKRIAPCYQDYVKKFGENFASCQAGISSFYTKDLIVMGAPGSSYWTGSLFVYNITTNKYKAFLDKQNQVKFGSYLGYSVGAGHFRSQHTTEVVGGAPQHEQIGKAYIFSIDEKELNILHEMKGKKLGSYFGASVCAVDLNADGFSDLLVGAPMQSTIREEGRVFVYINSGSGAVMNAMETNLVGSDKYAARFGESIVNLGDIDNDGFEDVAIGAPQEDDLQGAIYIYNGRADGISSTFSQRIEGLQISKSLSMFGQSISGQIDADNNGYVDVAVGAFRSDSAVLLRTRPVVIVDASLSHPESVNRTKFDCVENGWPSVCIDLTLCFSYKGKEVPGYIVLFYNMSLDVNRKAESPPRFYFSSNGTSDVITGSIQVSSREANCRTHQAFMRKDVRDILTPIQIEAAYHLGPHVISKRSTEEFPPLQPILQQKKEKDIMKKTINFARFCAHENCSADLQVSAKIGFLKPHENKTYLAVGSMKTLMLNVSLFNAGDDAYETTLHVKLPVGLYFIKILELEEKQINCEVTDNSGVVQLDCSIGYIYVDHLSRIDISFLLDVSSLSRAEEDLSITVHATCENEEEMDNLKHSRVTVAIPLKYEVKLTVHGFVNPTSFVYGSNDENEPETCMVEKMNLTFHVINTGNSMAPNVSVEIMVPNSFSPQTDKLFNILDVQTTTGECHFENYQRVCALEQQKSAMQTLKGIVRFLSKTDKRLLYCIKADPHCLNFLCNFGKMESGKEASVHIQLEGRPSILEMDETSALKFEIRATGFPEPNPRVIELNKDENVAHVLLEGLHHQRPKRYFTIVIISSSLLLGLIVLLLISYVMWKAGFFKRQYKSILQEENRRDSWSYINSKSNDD
T1 sequence (P05556 21-798): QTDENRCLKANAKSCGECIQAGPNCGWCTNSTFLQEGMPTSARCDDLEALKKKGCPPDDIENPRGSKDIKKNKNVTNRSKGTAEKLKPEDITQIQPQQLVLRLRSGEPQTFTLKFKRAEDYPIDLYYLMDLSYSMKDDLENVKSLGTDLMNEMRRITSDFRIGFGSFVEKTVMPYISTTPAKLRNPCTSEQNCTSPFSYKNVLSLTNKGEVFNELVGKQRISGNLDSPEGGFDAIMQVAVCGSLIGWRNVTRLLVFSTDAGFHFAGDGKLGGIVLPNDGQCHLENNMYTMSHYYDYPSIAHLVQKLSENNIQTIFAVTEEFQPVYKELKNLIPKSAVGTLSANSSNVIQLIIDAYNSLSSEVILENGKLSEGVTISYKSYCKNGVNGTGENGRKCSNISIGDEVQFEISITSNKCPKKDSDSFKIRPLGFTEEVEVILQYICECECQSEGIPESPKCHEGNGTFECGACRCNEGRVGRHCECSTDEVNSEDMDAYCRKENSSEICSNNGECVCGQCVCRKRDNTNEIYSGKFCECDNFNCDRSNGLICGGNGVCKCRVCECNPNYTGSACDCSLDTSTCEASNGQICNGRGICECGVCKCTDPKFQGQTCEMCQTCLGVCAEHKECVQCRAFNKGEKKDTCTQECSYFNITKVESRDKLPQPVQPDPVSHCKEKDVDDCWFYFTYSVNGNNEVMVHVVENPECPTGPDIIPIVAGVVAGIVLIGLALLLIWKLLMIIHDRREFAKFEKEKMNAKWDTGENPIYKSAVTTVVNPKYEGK

IC50 [µM]	Molecule
< 0.05	Cc1ccccc1NC(=O)Nc1ccc(CC(=O)N[C@H](C(=O)N[C@@H](CC(=O)O)C(=O)N[C@@H](CC(=O)O)C(N)=O)[C@@H](C)O)cc1 [Compound 252]
< 0.05	Cc1ccccc1NC(=O)Nc1ccc(CC(=O)N[C@H](C(=O)N[C@@H](CC(=O)O)C(=O)N[C@@H](CC(C)C)C(N)=O)[C@@H](C)O)cc1 [Compound 253]
< 0.05	CC[C@H](C)[C@H](NC(=O)[C@H](CC(=O)O)NC(=O)[C@@H](NC(=O)Cc1ccc(NC(=O)Nc2ccccc2C)cc1)[C@@H](C)O)C(N)=O [Compound 255]
< 0.05	Cc1ccccc1NC(=O)Nc1ccc(CC(=O)N[C@@H](CCC(=O)O)C(=O)N[C@@H](CC(=O)O)C(=O)N[C@@H](CC(=O)O)C(N)=O)cc1 [Compound 263]
< 0.05	Cc1ccccc1NC(=O)Nc1ccc(CC(=O)N[C@@H](CO)C(=O)N[C@@H](CC(=O)O)C(=O)N[C@@H](CC(C)C)C(N)=O)cc1 [Compound 276]
< 0.05	Cc1ccccc1NC(=O)Nc1ccc(CC(=O)N[C@@H](CO)C(=O)N[C@@H](CC(=O)O)C(=O)N[C@@H](CCC(=O)O)C(N)=O)cc1 [Compound 279]
< 0.05	CC[C@H](C)[C@H](NC(=O)Cc1ccc(NC(=O)Nc2ccccc2C)cc1)C(=O)N[C@@H](CC(=O)O)C(=O)N[C@@H](CC(=O)O)C(N)=O [Compound 286]
< 0.05	CC[C@H](C)[C@H](NC(=O)Cc1ccc(NC(=O)Nc2ccccc2C)cc1)C(=O)N[C@@H](CC(=O)O)C(=O)N[C@@H](CCC(=O)O)C(N)=O [Compound 290]
< 0.05	CC[C@H](C)[C@H](NC(=O)[C@H](CC(=O)O)NC(=O)[C@H](CCC(N)=O)NC(=O)Cc1ccc(NC(=O)Nc2ccccc2C)cc1)C(N)=O [Compound 300]
< 0.05	CSCC[C@H](NC(=O)[C@H](CC(=O)O)NC(=O)[C@H](CCC(N)=O)NC(=O)Cc1ccc(NC(=O)Nc2ccccc2C)cc1)C(N)=O [Compound 303]
< 0.05	Cc1ccccc1NC(=O)Nc1ccc(CC(=O)N[C@@H](CC(C)C)C(=O)N[C@@H](CCC(=O)O)C(=O)N[C@@H](CC(=O)O)C(N)=O)cc1 [Compound 310]
< 0.05	Cc1ccccc1NC(=O)Nc1ccc(CC(=O)N[C@@H](CC(C)C)C(=O)N[C@@H](CCC(=O)O)C(=O)N[C@H](C(N)=O)C(C)C)cc1 [Compound 311]
< 0.05	Cc1ccccc1NC(=O)Nc1ccc(CC(=O)N2CCC[C@H]2C(=O)N[C@@H](CCC(=O)O)C(=O)N[C@H](C(N)=O)C(C)C)cc1 [Compound 313]
< 0.05	CSCC[C@H](NC(=O)Cc1ccc(NC(=O)Nc2ccccc2C)cc1)C(=O)N[C@@H](CC(=O)O)C(=O)N[C@H](C(=O)N1CCC[C@H]1C(=O)O)C(C)C [Compound 315] ({NH(2-Me-phenyl)-CO}-[X2]MDVP-OH)
< 0.05	CC(C)C[C@H](NC(=O)Cc1ccc(NC(=O)Nc2ccccn2)cc1)C(=O)N[C@@H](CC(=O)O)C(=O)N[C@H](C(=O)N1CCC[C@H]1C(=O)O)C(C)C [Compound 316] ({X4-CO}-[X2]LDVP-OH)
< 0.05	CC(C)C[C@H](NC(=O)Cc1ccc(NC(=O)Nc2ccccc2)cc1)C(=O)N[C@@H](CC(=O)O)C(=O)N[C@H](C(=O)N1CCOCC1)C(C)C [Compound 318]
0.05 to 10	CC(C)C[C@H](NC(=O)Cc1ccc(NC(=O)Nc2ccccc2)cc1)C(=O)N[C@@H](CC(=O)O)C(=O)N[C@H](C(=O)NC(C)C)C(C)C [Compound 319]

IC50 [µM]	Molecule
0.05 to 10	CC(C)C[C@H](NC(=O)Cc1ccc(NC(=O)Nc2ccccc2)cc1)C(=O)N[C@@H](CC(=O)O)C(=O)N[C@H](C(=O)NC1CCCCC1)C(C)C [Compound 320]
0.05 to 10	CC(C)C[C@H](NC(=O)Cc1ccc(NC(=O)Nc2ccccc2)cc1)C(=O)N[C@@H](CC(=O)O)C(=O)N[C@H](C(=O)NCc1ccccc1)C(C)C [Compound 321]
< 0.05	CC(C)C[C@H](NC(=O)Cc1ccc(NC(=O)Nc2ccccc2)cc1)C(=O)N[C@@H](CC(=O)O)C(=O)N[C@H](C(=O)N1CCCCC1)C(C)C [Compound 322]
0.05 to 10	CC(C)C[C@H](NC(=O)Cc1ccc(NC(=O)Nc2ccccc2)cc1)C(=O)N[C@@H](CC(=O)O)C(=O)N[C@H](C(=O)N1CCC[C@H]1C(=O)NC1CCCCC1)C(C)C [Compound 324] ({NHPh-CO}-[X2]LDVP-NHcHex)
0.05 to 10	CC(C)C[C@H](NC(=O)Cc1ccc(NC(=O)Nc2ccccc2)cc1)C(=O)N[C@@H](CC(=O)O)C(=O)N[C@H](C(=O)N1CCC[C@H]1C(=O)N1CCCCC1)C(C)C [Compound 325] ({NHPh-CO}-[X2]LDVP-Piperidide)
< 0.05	CC(C)C[C@H](NC(=O)Cc1ccc(NC(=O)Nc2ccccc2)cc1)C(=O)N[C@@H](CC(=O)O)C(=O)N[C@H](C(=O)N1CCC[C@H]1C(=O)NCc1ccccc1)C(C)C [Compound 326] ({NHPh-CO}-[X2]LDVP-NHBn)
< 0.05	CC(C)C[C@H](NC(=O)Cc1ccc(NC(=O)Nc2ccccc2)cc1)C(=O)N[C@@H](CC(=O)O)C(=O)N[C@H](C(=O)N1CCC[C@H]1C(=O)NC(C)C)C(C)C [Compound 327] ({NHPh-CO}-[X2]LDVP-NHiPr)
< 0.05	CC(C)CNC(=O)[C@@H]1CCCN1C(=O)[C@@H](NC(=O)[C@H](CC(=O)O)NC(=O)[C@H](CC(C)C)NC(=O)Cc1ccc(NC(=O)Nc2ccccc2)cc1)C(C)C [Compound 328] ({NHPh-CO}-[X2]LDVP-NHiBu)
> 10	CC(C)CNC(=O)[C@H](CC(=O)O)NC(=O)[C@@H]1CCCN1C(=O)CCc1ccc(O)cc1 [Compound 331]
< 0.05	CC(C)C[C@H](NC(=O)Cc1ccc(NC(=O)Nc2ccccc2F)cc1)C(=O)N[C@@H](CC(=O)O)C(=O)N[C@H](C(=O)N1CCC[C@H]1C(=O)O)C(C)C [Compound 347] ({NH(2-F-phenyl)-CO}-[X2]LDVP-OH)
> 10	CNC(=O)[C@@H](NC(=O)[C@H](CC(=O)O)NC(=O)[C@H](CC(C)C)N(C)C(=O)CCCc1ccccc1)C(C)C [Compound 348]
> 10	CNC(=O)[C@@H](NC(=O)[C@H](CC(=O)O)NC(=O)[C@H](CO)NC(=O)Cc1ccccc1)C(C)C [Compound 349] (HELM PEPTIDE1{[O=C(Cc1ccccc1)[*:2]].S.D.V.[CN[*:1]]}$$$$V2.0)
> 10	CNC(=O)[C@@H](NC(=O)[C@H](CC(=O)O)NC(=O)[C@H](CCCCN)NC(=O)Cc1ccccc1)C(C)C [Compound 350] (HELM PEPTIDE1{[O=C(Cc1ccccc1)[*:2]].K.D.V.[CN[*:1]]}$$$$V2.0)
> 10	CNC(=O)[C@H](COCc1ccccc1)NC(=O)[C@H](CC(=O)O)NC(=O)[C@H](CC(C)C)NC(=O)Cc1ccccc1 [Compound 352] (PhAc-Leu-Asp-Ser(Bn)-NHMe)
> 10	CNC(=O)[C@H](COCc1ccccc1)NC(=O)[C@H](CC(=O)O)NC(=O)[C@H](CC(C)C)NC(=O)c1ccc2ccccc2n1 [Compound 353]
> 10	CCCCNC(=O)[C@@H](NC(=O)[C@H](CC(=O)O)NC(=O)[C@H](CC(C)C)NC(=O)OC(C)(C)C)[C@@H](C)O [Compound 354] (HELM PEPTIDE1{[CC(C)(C)OC(=O)[*:2]].L.D.T.[CCCCN[*:1]]}$$$$V2.0)

Molecular target: T2, VLA-4 (alpha4beta1 integrin) (UniProt P13612 34-1032; P05556 21-798, limits assumed)
T2 construct: whole, on cells; also called very late antigen-4; CD49d/CD29
Assay: Ramos/BSA-CS1 adhesion inhibition
Conditions: not given
Description: Following labelling, the cells were washed twice in assay buffer (24 mM TRIS, 137 mM NaCl, 2.7 mM KCl, pH 7.4, containing 0.1 BSA and 2mM glucose) to remove any cations originating from the culture medium. The cells were then resuspended in assay buffer to 4 ×10^6 cells/mL and 2 mM MnCl_2 was added to upregulate VLA4 on the surface of the cells.
Immediately prior to running the assay, we removed the BSA blocking solution from the 96-well plates and washed the wells with 100 μL of assay buffer. We then added to each well 25 μL of test cell adhesion inhibitory compound at 2×the final concentration and 25 μL of the labelled Ramos cells. […] Each concentration of compound was tested in triplicate. The compound and cells are allowed to incubate for 30 minutes at room temperature.
Percent binding is calculated by the formula: […]

T2 sequence (P13612 34-1032 limits assumed, chain 1 of 2): as the sequence (P13612 34-1032) above
T2 sequence (P05556 21-798 limits assumed, chain 2 of 2): as the sequence (P05556 21-798) above

IC50 [µM]	Molecule
> 10	B1
< 0.05	B2
0.05 to 10	B3
> 10	B4
< 0.05	B5
> 10	B6
0.05 to 10	B7
< 0.05	B8

— patent US6596687B1, “Cell adhesion inhibitors” (Biogen, Inc., priority 1995, dated 2003)
